Values belong to the molecule of their own block, whether it stands above or below them.
How the values were obtained:
VDRE = experiment: Electrophoretic mobility shift assay for VDR activation (VDRE probe); format: cell-based, human; details: HaCaT nuclear extracts, 10 nM, 24 h
[1] = tested on: human radial growth phase amelanotic melanoma WM35 cells; experiment: Viability of WM35 melanoma cells; format: cell-based; details: WM35, 24 h
Protocol: Cells were seeded in 96-well plate and incubated with 20-hydroxycholecalciferol in DMEM medium containing 5% FBS for 48 h (FIG. 25A) or 72 h (FIG. 25C) or for 24 h after a 12 h synchronization in serum free medium (FIG. 25D). […] was added for a final 18 h (FIGS. 25A, 25D) or 12 h (FIG. 25C) of incubation or cells were assessed with sulforhodamine assay (FIG. 25C). Data is shown as mean±SEM (n=5; FIG. 24C) or mean±SEM (n=6; FIGS. 24A, 24C, 24D) and was analyzed using GraphPrism 4.0.

WM164 = experiment: Flow cytometry cell cycle and subG1, WM164; format: cell-based; details: WM164, 24 h
Protocol: MD-MBA-231, MG-63, PC-3, and WM164 cells were seeded into Petri dishes and then incubated for 24 h with 20-hydroxycholecalciferol in DMEM medium containing 5% FBS. Then cells were fixed, DNA stained and samples read with flow cytometer as described (7). Data was analyzed with Cell Quest (BD Biosciences). Cell cycle phases were assessed in viable cell populations and subG1 contents were calculated within whole cell population.

[2] = tested on: collagen-induced arthritis (CIA) in DBA/1 Lac J mice; experiment: Type II collagen-induced arthritis (CIA) model; format: in vivo, mouse; details: i.p. every day at 2.5 μg/kg from day 14 post CII immunization
Source text: The CIA model in DBA/1 Lac J mice has been widely studied as a model with some features of human RA, and has served as a reliable model to study various mediators and therapies of autoimmune arthritis. The immunization of DBA/1 Lac J mice with native bovine CII in complete Freund's adjuvant (CFA) is followed 10-14 days later by the onset of arthritis in the distal extremities. […] The arthritis is characterized by acute, subacute and chronic inflammation that correlates with histologic changes in distal extremity joints that progressively worsens during the subsequent 10 to 40 day period. The arthritis is dependent on the generation of inflammatory mediators from activation of the complement cascade by anti-CII antibodies, the infiltration of neutrophils, monocytes and T cells into the joint resulting in liberation of inflammatory cytokines and various proteases (42).
Twenty-four DBA/1 Lac J female mice 6 wks old were immunized with bovine CII in CFA. […] Arthritis severity was assessed every 3-4 days by two observers and each paw was given a score of 0=no swelling; 1=slight swelling and redness; 2=moderate swelling and redness; 3=marked swelling and redness; and 4=marked swelling and redness with deformity. […]

CYP27A1 = target: T1, CYP27A1 (Homo sapiens, UniProt Q02318); experiment: Metabolism by CYP27A1 (cyclodextrin or phospholipid vesicles)
T1 sequence (Q02318 34-531): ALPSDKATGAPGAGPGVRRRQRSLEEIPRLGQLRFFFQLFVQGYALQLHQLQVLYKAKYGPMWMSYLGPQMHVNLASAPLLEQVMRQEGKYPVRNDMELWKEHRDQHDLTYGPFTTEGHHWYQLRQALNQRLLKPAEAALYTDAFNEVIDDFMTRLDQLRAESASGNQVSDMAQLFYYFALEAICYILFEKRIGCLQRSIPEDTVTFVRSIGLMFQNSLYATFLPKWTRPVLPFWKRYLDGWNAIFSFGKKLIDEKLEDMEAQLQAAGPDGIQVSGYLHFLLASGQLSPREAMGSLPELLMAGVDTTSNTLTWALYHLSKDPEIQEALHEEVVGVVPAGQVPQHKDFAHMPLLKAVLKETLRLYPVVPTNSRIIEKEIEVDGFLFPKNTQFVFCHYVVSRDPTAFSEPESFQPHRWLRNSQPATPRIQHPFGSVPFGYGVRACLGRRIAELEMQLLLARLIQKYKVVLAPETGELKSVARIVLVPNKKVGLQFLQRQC
Protocol: To test enzymatic metabolism of 20S(OH)D3 and 20R(OH)D3, the substrates were incorporated into phospholipid vesicles with the ratio of substrate to phospholipid being 0.025 mol/mol phospholipid. Vesicles were incubated with 2 μM bovine CYP11A1 or 0.06 μM human CYP27B1 for up to 10 min. To test enzymatic metabolism of 20(OH)D3 in CYP24, the substrate was incorporated into phospholipids vesicles with 0.15-0.5 μM CYP24. To test enzymatic metabolism of 20(OH)D3 in CYP27A1, purified CYP27A1 was preincubated with the vesicles for 6 min at 37° C. Adrenodoxin was added last to initiate the reaction. For kinetic experiments, the incubations were typically 0.5 mL and were carried out over the initial linear period of the reaction (10 min for vitamin D3 and cholesterol and 30 min for 20(OH)D3).
Kinetic characterization of the metabolism of 20(OH)D3 by CYP27A1 was carried out with substrate dissolved in either cyclodextrin or phospholipid vesicle. Vitamin D3 and 20(OH)D3 were incubated with 0.4 μM CYP27A1 and 1 μM CYP27A1, respectively, for 10 and 30 min. The products were analyzed by reverse phase HPLC. The hyperbolic curves were fitted using the equation v/[E]=(kcat—[S])/(Km+[S]) where v is reaction velocity, [E] is the CYP27A1 concentration, and [S] the substrate concentration.

[3] = tested on: K562 human chronic myeloid leukemia cells; experiment: Viable cell count, K562 cells; format: cell-based; details: 10^-7 M, 7 days
Protocol: K562 human chronic myeloid leukemia (erythroleukemia) and MEL mouse erytholeukemia cells were cultured in RPMI 1640 containing 10% FBS and treated with the drugs at concentrations 0.1 μM. A 0.1% ethanol (EtOH) or 2% DMSO were used as negative or positive control, respectively to estimate the vehicle effect and the ability of the cells to differentiate. Media were exchanged every 72 h and drugs added every day. Growth of cultures was estimated by counting number of viable cells (trypan blue negative cells) as described previously.

kcat (CYP27A1; cyclodextrin): 0.013 ± 0.00033 s⁻¹
kcat (CYP27A1; phospholipid vesicles): 0.0126 ± 0.001 s⁻¹
SMILES: C=C1CC[C@H](O)C/C1=C/C=C1\CCC[C@@]2(C)[C@H]1CC[C@@H]2[C@@](C)(O)CCCC(C)C [20(OH)D3, (5Z,7E)-9,10-secocholesta-5,7,10(19)-triene-3β,20-diol]
binding of protein complexes to VDRE probe (VDRE): stimulated binding activity of protein complexes to VDRE probe
concentration above which viability started declining [1]: greater than 1×10^−7 M
G0/G1 of viable cells (WM164): 70%
G2/M of viable cells (WM164): 7
S of viable cells (WM164): 24%
Viable Cells (WM164): 87
subG1 (WM164; whole cell population): 13
arthritis severity (CIA) [2]: suppresses CIA

SMILES: C=C1CC[C@H](O)C/C1=C/C=C1\CCC[C@]2(C)[C@@H](C(C)=O)CC[C@@H]12 [pD3, (5Z,7E)-3β-hydroxy-9,10-secopregna-5,7,10(19)-trien-20-one]
proliferation of K562 cells [3]: inhibit proliferation

Source: patent publication US20120258938A1, “Enzymatic Production or Chemical Synthesis and Uses for 5,7-Dienes and UVB Conversion Products Thereof” (priority 2008, published 2012)
